These results are taken from patent US20060154904A1, “Betulinol derivatives as anti-HIV agents” (Cornell Research Foundation, Inc., priority 2004, published 2006).

Where two headings read alike, the source gives them in different places.

One series deals with HIV-1 IIIB isolate. As to the kind of experiment: HIV-1 inhibitory effect, p24 antigen capture ELISA in acutely infected 174XCEM cells. The series is classed as cell-based. Particulars: for anti-HIV-1 activity (p24 OD, FIG. 6) / inhibition of HIV infection (FIG. 7): 1 μg/ml; for anti-HIV-1 activity (p24 OD, FIG. 6): 4 days, compared with other betulinol derivatives; for dose-related anti-HIV effect (FIG. 8): doses of 0.5, 1 .5, and 2 μg/ml. For orientation: ELISA stands for enzyme-linked immunosorbent assay.

The test system of series [1] is Human T-B hybridoma cell line 174XCEM. In words: cell viability by trypan blue dye exclusion. The series is classed as cell-based. The settings on record: for effect on total cell number or cell viability: trypan blue at four days and seven days; for cell toxicity: doses of 0.5, 1 .5, and 2 μg/ml. From the text:
Dimethyl sulfoxide (“DMSO”) buffer was used as “no virus” control.

In a further series the test system is AZT-resistant HIV strain. As to the kind of experiment: anti-HIV activity against AZT-resistant patient isolates in MT-2 cells. In kind it is cell-based. From the text: These isolates were used to infect MT-2 cells in vitro.
Series [2] is described as follows: solubility in DMSO diluted with culture medium, GC against standard curve. The series is classed as physicochemical. As for the experimental part: The residue was dissolved in chloroform analyzed on GC.
Ethyl ether was then evaporated.

Series [3] is described as follows: tolerability of solubilized drug in mice with prostate cancer cell xenografts. In kind it is in vivo. The settings on record: final concentration 22% ethanol and 2×10^−3 mol per liter of betulonic acid.
For another series, the system named is HIV. Particulars: Sun et al., J. Med. Chem. 41:4648-4657 (1998); cited from earlier work.
A further series deals with another HIV-1 isolate. As to the kind of experiment: effect on 174XCEM cells chronically infected with another HIV-1 isolate. The series is classed as cell-based. The settings on record: single dose 1 μg/ml. The procedure: Agents were also evaluated for an effect on 174XCEM cells chronically infected with another HIV-1 isolate.
Series [4] in a line: solubility in human serum. The settings on record: 1.34 mg in 31 μL ethanol and 700 μL human serum. In kind it is physicochemical.
Series [5] is described as follows: solubilization in PBS containing human γ-globulin, human albumin and ethanol. In kind it is physicochemical. Particulars: 1 × 10^−3 mol/L.
Another series deals with cells. Particulars: cited from earlier work.
[6] abbreviates: culture medium containing 20% DMSO, calculated from amount and volume.

For the molecule `C=C(C)[C@@H]1CC[C@]2(CO)CC[C@]3(C)[C@H](CC[C@@H]4[C@@]5(C)CC[C@H](OC(C)=O)C(C)(C)[C@@H]5CC[C@]43C)[C@@H]12` [3-acetoxy betulin], the “anti-HIV-1 activity (p24 OD, FIG. 6)” value in the series on HIV-1 IIIB isolate is given as “superior”. Moreover, in [1], the “effect on total cell number or cell viability” value is listed as “no effect”.

For the molecule `C=C(C)[C@@H]1CC[C@]2(COC(C)=O)CC[C@]3(C)[C@H](CC[C@@H]4[C@@]5(C)CC[C@H](O)C(C)(C)[C@@H]5CC[C@]43C)[C@@H]12` [28-acetoxy betulin], in the series on HIV-1 IIIB isolate, the “anti-HIV-1 activity (p24 OD, FIG. 6)” value is “superior”. Moreover, the “dose-related anti-HIV-1 activity (FIG. 10)” value in the series with HIV-1 IIIB isolate (doses 0.5, 1, 1.5, and 2 μg/ml) is “comparable anti-HIV-1 activity”. In addition, in series [1], the “effect on total cell number or cell viability” value is “no effect”.

Consider `Cc1cn([C@H]2C[C@H](N=[N+]=[N-])[C@@H](CO)O2)c(=O)[nH]c1=O` [AZT, 3′-azido-3′-deoxythymidine, reference compound], for which the “inhibition in the HIV infection” value with AZT-resistant HIV strain (day 8) was “ineffective”.

Regarding `C=C(C)C1CCC2(C(=O)NCCCCC(NC(=O)C(CCCCNC(=O)C34CCC(C(=C)C)C3[C@@H]3CC[C@H]5[C@]6(C)CCC(=O)C(C)(C)[C@H]6CC[C@]5(C)[C@@]3(C)CC4)NC(=O)OC(C)(C)C)C(=O)O)CC[C@]3(C)[C@H](CC[C@@H]4[C@@]5(C)CCC(=O)C(C)(C)[C@@H]5CC[C@]43C)C12` (stereo partly drawn) [Boc-Dimer], in [2] (setting [6]), the “Concentration of drug (mg/mL)” value is 0.6 mg/mL and the “Concentration of drug (mol/L)” value is 0.0005 mol/L.

Regarding `C=C(C)C1CCC2(C(=O)NCCCCC(NC(=O)OC(C)(C)C)C(=O)O)CC[C@]3(C)[C@H](CC[C@@H]4[C@@]5(C)CCC(=O)C(C)(C)[C@@H]5CC[C@]43C)C12` (stereo partly drawn) [Boc-Monomer], the “Concentration of drug (mg/mL)” value in series [2] is 0.7 mg/mL. The tolerability entry in [3] was “well tolerated”.

Turning to `C=C(C)[C@@H]1CC[C@]2(COC(C)=O)CC[C@]3(C)[C@H](CC[C@@H]4[C@@]5(C)CC[C@H](OC(C)=O)C(C)(C)[C@@H]5CC[C@]43C)[C@@H]12` [betulin diacetate], in the series on HIV, the therapeutic index result is given as “low therapeutic index”. The “inhibition in chronically infected cells” value in the series with another HIV-1 isolate came to 20%. In the series with HIV-1 IIIB isolate, the “inhibition of HIV infection (FIG. 7)” value was 57% and the “dose-related anti-HIV effect (FIG. 8)” value is “Progressive increases in anti-HIV effect”. Further, the cell toxicity entry in [1] is recorded as “without cell toxicity”.

Turning to `C=C(C)C1CCC2(COC)CCC3(C)C(CCC4C5(C)CCC(OC)C(C)(C)C5CCC43C)C12` (stereo not drawn) [betulin dimethyl ether], the “anti-HIV-1 activity (p24 OD, FIG. 6)” value with HIV-1 IIIB isolate is recorded as “superior”. For the same molecule, in series [1], the “effect on total cell number or cell viability” value is given as “no effect”.

`C=C(C)C1CCC2(CO)CC[C@]3(C)[C@H](CC[C@@H]4[C@@]5(C)CCC(O)C(C)(C)[C@@H]5CC[C@]43C)C12` (stereo partly drawn) [betulinol, lup-20(29)-ene-3β, 28-diol]: the “inhibition in chronically infected cells” value in the series on another HIV-1 isolate is given as “minimal effect”. In addition, the “inhibition of HIV infection (FIG. 7)” value with HIV-1 IIIB isolate was “no effect”. Moreover, the “dose-related anti-HIV effect (FIG. 9)” value with HIV-1 IIIB isolate (doses 1.3, 1.6, and 2 μg/ml) is given as “increasing anti-HIV effect”.

As to `C=C(C)[C@@H]1CC[C@]2(C=O)CC[C@]3(C)[C@H](CC[C@@H]4[C@@]5(C)CCC(=O)C(C)(C)[C@@H]5CC[C@]43C)[C@@H]12` [betulone aldehyde], the “inhibition in chronically infected cells” value in the series on another HIV-1 isolate is listed as “minimal effect”. Also, in the series on HIV-1 IIIB isolate, the “inhibition of HIV infection (FIG. 7)” value was 37% and the “dose-related anti-HIV effect (FIG. 8)” value is recorded as “Progressive increases in anti-HIV effect”. Besides, the cell toxicity result in series [1] is recorded as “without cell toxicity”.

In the case of `C=C(C)C1CCC2(C(=O)O)CC[C@]3(C)[C@H](CC[C@@H]4[C@@]5(C)CCC(=O)C(C)(C)[C@@H]5CC[C@]43C)C12` (stereo partly drawn) [betulonic acid], the Observation entry is on record as “Clear Solution” in [4]; “Complete” in series [5] (γ-globulin in PBS 0 mL, albumin in PBS 2.50 mL, ethanol 280 μL); “Clear” in series [5] (γ-globulin in PBS 0.32 mL, albumin in PBS 2.85 mL, ethanol 352 μL); “Almost Clear” in [5] (γ-globulin in PBS 0.69 mL, albumin in PBS 2.07 mL, ethanol 308 μL); “Cloudy” in [5] (γ-globulin in PBS 1.48 mL, albumin in PBS 0.49 mL, ethanol 220 μL); “Little Cloudy” in [5] (γ-globulin in PBS 1.48 mL, albumin in PBS 1.48 mL, ethanol 330 μL). For the same molecule, the Observation result in series [5] (γ-globulin in PBS 2.50 mL, albumin in PBS 0 mL, ethanol 280 μL) is on record as “Suspension”. For the same molecule, the “amount of betulonic acid dissolved” value in series [2] (out of 3 mg, 1% DMSO in culture medium containing 10% FBS, nominal 0.5 mg/mL) amounted to 0.4 mg. The entries for the “inhibition in the HIV infection” value in the series on AZT-resistant HIV strain (day 5) and in the series on AZT-resistant HIV strain (day 8) were 56% and 44%, respectively. For the same molecule, in series [3], the tolerability entry is on record as “well tolerated”. Also, the cytotoxicity entry in the series on cells was “cytotoxic”.
